According to patent US20200330447A1, “CANCER TREATMENT VIA REPOSITIONED TRICYCLIC ANTI-DEPRESSANT-LIKE DRUGS AS ANTI-CANCER AGENTS AND NEW COMBINATIONS OF SUCH DRUGS” (Board of Supervisors of Louisiana State University and …, priority 2015, published 2020):

Columns and labels:
Assay type in all cases: cell-based
A172 glioblastoma cells [1] = assay: Wound invasion through matrigel, Incucyte; conditions: for invasion: 5 or 10 μM, 8 h prior to wounding and addition of matrigel
Experimental: An important aspect of this technology is the showing that deptropine and pizotifen block tumor invasion using 3D assays. […] For this experiment A172 glioblastoma cells were treated with 5 or 10 μM deptropine or pizotifen or drug mix at 5 μM concentration for 8 h prior to the wounding and the addition of matrigel. Upon wounding, cells were allowed to migrate or invade through matrigel in the presence of DMSO, 5 or 10 μM deptropine or pizotifen or the drug mix at 5 μM concentration. EIPA, a known inhibitor of lysosomal outward movement, is the positive control. Motility and invasion were calculated by Incucyte platform that acquires real time images of invasion and motility and calculate the relative wound density percentage at different time points. Percent migration (FIG. 6A) or invasion (FIG. 6B) through matrigel in A172 glioblastoma cells in the presence of DMSO, 5 or 10 μM deptropine or pizotifen or the drug mix at 5 μM concentration. Error bars represent s.e.m. of 5 separate experiments. # statistical significance, p<0.001, versus both 1% FBS and DMSO; *, p<0.01 versus both 1% FBS and DMSO

mTOR signaling pathway = assay: Western blot of phosphorylated S6K (mTOR signaling); conditions: A172 cells, 4 hours
Experimental: Deptropine and pizotifen were added to A172 cells for 4 hours and western blot analysis was performed to measure levels of phosphorylated S6K, indicative of active mTOR signaling.

A172 cells [2] = assay: Invasive structures in 3D culture
A172 glioblastoma cells [3] = assay: Growth factor (HGF, EGF) induced trafficking of lysosomes to cell periphery; conditions: 10 μM overnight, HGF (33 ng/ml) or EGF (100 ng/ml)
Experimental: In this embodiment deptropine and pizotifen also block lysosome peripheral movement in glioma cells treated with the growth factors HGF and EGF. Both of these growth factors interact with their receptors, c-Met and EGFR, respectively to induce glioma invasion. In this example, A172 glioblastoma cells were treated overnight with 10 μM deptropine or pizotifen in the presence or absence of HGF (33 ng/ml) or EGF (100 ng/ml). At the end of the incubation time, cells were fixed and stained for LAMP-1, filamentous actin, and nuclei. Representative merged IF images depicting the effect of DMSO, 10 μM deptropine or pizotifen and/or HGF, EGF on the distribution of lysosomes (red in color images) in A172 glioblastoma cells. Also shown here are actin (green in color images) and nuclei (blue in color images).

A172 cells [4] = assay: Standard MTS assay (proliferation); conditions: concentrations up to 10 micromolar
Experimental: A very beneficial aspect of the treatment with deptropine and pizotifen is shown in FIG. 11, namely that the actions of deptropine and pizotifen are not the result of toxicity. The standard MTS assay was performed for A172 cells in the presence of the indicate concentrations of deptropine and pizotifen.

[5] = system: DU145 prostate cancer cells; assay: High content imaging-based screen (Cellomics) for lysosome migration inhibitors; conditions: pH 6.4 media, 2 micrograms per ml, 16 hours
Experimental: DEVELOPMENT OF A HIGH CONTENT IMAGING-BASED SCREEN: The followings process was followed to identify chemicals that were lysosome migration inhibitors. DU145 prostate cancer cells were seeded in 96 well flat bottom black walled plates at 4,500 cells per well. All compounds and controls were exposed to RPMI bicarbonate buffered media (pH 6.4). RPMI buffered media titrated at pH of 6.4-6.8 was added to column 12 after the media was removed and serves as negative control (low acidic pH so lysosomes move out). […] The 4 compound libraries chosen to screen were the NIH Clinical Collection (450 drugs), Prestwick (1200 drugs), Prestwick phytochemical and the Green Pharma collection (xx drugs). Compounds were diluted with buffered RPMI media to 2 micrograms per ml concentrations. Individual compounds to be screened were added robotically as a single compound per well through columns 2-11. Plates were incubated at 37 degrees in 5% CO2 for 16 hours then the medium was removed and the cells were fixed with 4% cold paraformaldehyde (Sigma-Aldrich) for 20 minutes at 4 degrees. Fixed cells were washed once with PBS. To stain lysosomes, cells were incubated for 1 hour with LAMP1 antibody (H4A3) diluted in BSP (containing 0.25% BSA and 0.1% saponin in PBS) at 1/200. Cells were then washed with PBS 3 times then incubated for 1 hour with Dylight Donkey anti-mouse diluted at 1/200 in BSP. To stain the nucleus, cells were then washed with PBS 3 times and incubated for 20 minutes with 1×DAPI diluted in PBS. DAPI was washed off with PBS and cells were maintained in PBS for the duration of the screening process. Plates were mounted and read in a Cellomics Arrayscan automated fluorescence imager. The Cellomics platform allows for high content throughput screening by combining fluorescence microscopy with a multi-parameter image analysis. Cells were photographed using 20× objective in 2 fluorescent channels. A total of 15 different fields in each well, and at least 300 cells were imaged per well. The biocompartmental analysis algorithm was used to identify each cell by its nucleus (channel 1 recognized by the DAPI stain) and to generate a cytoplasmic mask (ring) of 12 pixels width in which the inner ring was 6 pixels away from the nucleus. The algorithm calculates the number of lysosomes inside the ring as indicated by fluorescent LAMP-1 positive puncta in channel 2 as a mean ring spot count. Therefore, when lysosomes move away from the nucleus and disperse throughout the cytoplasm, the number of spots representing lysosomes inside the cytoplasmic ring increases (low pH conditions). By contrast, lysosomes cluster near the nucleus the numbers of spot inside the cytoplasmic ring decreases (EIPA treated).
Z′-factor is a simple statistical coefficient used to assess performance and quality of the assay in high-throughput screening. It is calculated with the formula: Z′=1-(3σct+3σcb)/|μct−μcb|, where p indicates mean, a represents standard deviation, “ct” indicates the positive control, “cb” indicates the negative control. […] If the Z′ is more than 0.5, the assay is considered to be high quality assay.
The Z′ factor of the assay was determined from the EIPA (positive control) and low pH (negative control). Experiments were run in duplicate. Only plates with positive Z′ factor was used for analysis.

SMILES	invasion (A172 glioblastoma cells [1])	phosphorylation of S6K (mTOR signaling pathway)	number of invasive structures formed in 3D culture (A172 cells [2])	trafficking of lysosomes to cell periphery induced by growth factors (A172 glioblastoma cells [3])	proliferation (MTS) (A172 cells [4])	hit in screen for lysosome migration inhibitors (mean ring spot count) [5]	invasion through matrigel (percent invasion) (A172 glioblastoma cells [1]; 10 μM)
CN1[C@@H]2CC[C@H]1C[C@@H](OC1c3ccccc3CCc3ccccc31)C2 [deptropine, 3a-[(10, 11-dihydro-5H-dibenzo[a,d]cyclohepten-5-yl)oxy]1aH,5aH-tropane]	decrease	eliminates the phosphorylation of S6K	effectively reduce the number of invasive structures	block trafficking of lysosomes to cell periphery	do not inhibit proliferation	hits	–
CN1CCC(=C2c3ccccc3CCc3sccc32)CC1 [pizotifen, 4-(1-methyl-4-piperidylidine)-9,10-dihydro-4H-benzo-[4,5]cyclohepta[1,2]-thiophene]	decrease	eliminates the phosphorylation of S6K	effectively reduce the number of invasive structures	block trafficking of lysosomes to cell periphery	do not inhibit proliferation	hits	significantly reduces invasion
